# Experimental data published in patent US20160122315A1, “CRYSTALLINE IMATINIB MESYLATE PROCESS” (SHILPA MEDICARE LIMITED, priority 2013, published 2016).
# Read-outs that look alike come from different tables or passages of the source.
# What was measured:
# [1] = Hygroscopicity of crystalline Form-SA; assay type: physicochemical; settings: crystalline solid
# [2] = crystal forms disclosed by Zimmermann et al, U.S.'051; cited from earlier work
# [3] = compared with the α-crystal form; disclosed in U.S.'051; cited from earlier work
SMILES,hygroscopicity [1],hygroscopicity [2],thermodynamic stability [3]
"Cc1ccc(NC(=O)c2ccc(CN3CCN(C)CC3)cc2)cc1Nc1nccc(-c2cccnc2)n1 [Form-SA, 4-[(4-Methyl-1-piperazinyl)methyl]-N-[4-methyl-3-[[4-(3-pyridinyl)-2-pyrimidinyl]amino]-phenyl]benzamide methanesulfonate]",non-hygroscopic,–,–
CS(=O)(=O)O.Cc1ccc(NC(=O)c2ccc(CN3CCN(C)CC3)cc2)cc1Nc1nccc(-c2cccnc2)n1 [a-crystal form],–,hygroscopic,–
CS(=O)(=O)O.Cc1ccc(NC(=O)c2ccc(CN3CCN(C)CC3)cc2)cc1Nc1nccc(-c2cccnc2)n1 [β-crystal form],–,less hygroscopic than the α-crystal form,thermodynamically more stable at temperatures below 140 °C
